Source: PMC5218480 (PLoS ONE, 2017)

Test system: MV-4-11 cells
Experiment: Gene expression microarray analysis (Affymetrix PrimeView) and GSEA
Assay type: cell-based, human
Set-up: RFU PODN (11730768_x_at) / Fold change /veh PODN (11730768_x_at) / RFU LINC00158 (11744669_a_at) / Fold change /veh LINC00158 (11744669_a_at) / RFU DUSP10 (11751237_a_at) / Fold change /veh DUSP10 (11751237_a_at) / RFU ID3 (11757404_x_at) / Fold change /veh ID3 (11757404_x_at) / RFU PLEKHG5 (11737974_s_at) / Fold change /veh PLEKHG5 (11737974_s_at) / RFU LRRC4B (11730491_at) / Fold change /veh LRRC4B (11730491_at) / RFU GIMAP4 (11747438_a_at) / Fold change /veh GIMAP4 (11747438_a_at) / RFU KRT8 (11758183_x_at) / Fold change /veh KRT8 (11758183_x_at) / RFU CNN1 (11734310_a_at) / Fold change /veh CNN1 (11734310_a_at) / RFU VPS37D (11726825_at) / Fold change /veh VPS37D (11726825_at) / RFU C10orf10 (11716522_x_at) / Fold change /veh C10orf10 (11716522_x_at) / RFU KIR2DL2 /// KIR2DL4 /// KIR2DL5A /// KIR2DL5B /// KIR2DS1 /// KIR2DS2 /// KIR2DS3 /// KIR2DS4 /// KIR3DL3 /// KIR3DL3 /// KIR3DS1 (11738374_at) / Fold change /veh KIR2DL2 /// KIR2DL4 /// KIR2DL5A /// KIR2DL5B /// KIR2DS1 /// KIR2DS2 /// KIR2DS3 /// KIR2DS4 /// KIR3DL3 /// KIR3DL3 /// KIR3DS1 (11738374_at) / RFU C1QL1 (11718748_at) / Fold change /veh C1QL1 (11718748_at) / RFU TMPRSS4 (11747572_a_at) / Fold change /veh TMPRSS4 (11747572_a_at) / RFU HAMP (11756126_x_at) / Fold change /veh HAMP (11756126_x_at) / RFU RNFT2 (11725882_a_at) / Fold change /veh RNFT2 (11725882_a_at) / RFU NR4A2 (11747474_a_at) / Fold change /veh NR4A2 (11747474_a_at) / RFU ABCC12 (11746883_a_at) / Fold change /veh ABCC12 (11746883_a_at) / RFU TMEM136 (11760407_x_at) / Fold change /veh TMEM136 (11760407_x_at) / RFU CLDN22 /// WWC2 (11732394_at) / Fold change /veh CLDN22 /// WWC2 (11732394_at) / RFU HLA-DPB1 (11760878_x_at) / Fold change /veh HLA-DPB1 (11760878_x_at) / RFU SPINT1 (11716480_a_at) / Fold change /veh SPINT1 (11716480_a_at) / RFU GAP43 (11754022_s_at) / Fold change /veh GAP43 (11754022_s_at) / RFU A4GNT (11735810_at) / Fold change /veh A4GNT (11735810_at) / RFU PRB3 (11715151_x_at) / Fold change /veh PRB3 (11715151_x_at) / RFU TUBB4B (11761932_at) / Fold change /veh TUBB4B (11761932_at) / RFU CAPN14 (11732068_a_at) / Fold change /veh CAPN14 (11732068_a_at) / RFU TMCC2 (11721928_a_at) / Fold change /veh TMCC2 (11721928_a_at) / RFU IRGQ (11745062_a_at) / Fold change /veh IRGQ (11745062_a_at) / RFU FAM174B (11720279_a_at) / Fold change /veh FAM174B (11720279_a_at) / RFU TMPRSS4 (11748680_a_at) / Fold change /veh TMPRSS4 (11748680_a_at) / RFU FAM212B (11763350_a_at) / Fold change /veh FAM212B (11763350_a_at) / RFU PLEKHG5 (11743358_a_at) / Fold change /veh PLEKHG5 (11743358_a_at) / RFU ZSCAN30 (11745921_a_at) / Fold change /veh ZSCAN30 (11745921_a_at) / RFU CMKLR1 (11741424_a_at) / Fold change /veh CMKLR1 (11741424_a_at) / RFU LOC101060620 /// MAPK8IP1 (11723275_at) / Fold change /veh LOC101060620 /// MAPK8IP1 (11723275_at) / RFU SPTSSB (11747773_x_at) / Fold change /veh SPTSSB (11747773_x_at) / RFU PRSS12 (11739890_at) / Fold change /veh PRSS12 (11739890_at) / RFU BIN1 (11741810_x_at) / Fold change /veh BIN1 (11741810_x_at) / RFU WNT11 (11732464_a_at) / Fold change /veh WNT11 (11732464_a_at) / RFU C10orf10 (11716521_a_at) / Fold change /veh C10orf10 (11716521_a_at) / RFU C5orf56 (11738089_at) / Fold change /veh C5orf56 (11738089_at) / RFU CYB561 (11721691_x_at) / Fold change /veh CYB561 (11721691_x_at) / RFU ANKRD19P (11752326_a_at) / Fold change /veh ANKRD19P (11752326_a_at) / RFU OR2T12 /// OR2T33 /// OR2T8 (11738714_s_at) / Fold change /veh OR2T12 /// OR2T33 /// OR2T8 (11738714_s_at) / RFU VCAN (11748164_a_at) / Fold change /veh VCAN (11748164_a_at) / RFU JSRP1 (11732532_at) / Fold change /veh JSRP1 (11732532_at) / RFU KRTAP10-11 (11738290_x_at) / Fold change /veh KRTAP10-11 (11738290_x_at) / RFU MYO3A (11730013_a_at) / Fold change /veh MYO3A (11730013_a_at) / RFU EBF3 (11725865_a_at) / Fold change /veh EBF3 (11725865_a_at) / RFU CAMK2N1 (11719241_x_at) / Fold change /veh CAMK2N1 (11719241_x_at) / RFU C5orf56 (11738088_a_at) / Fold change /veh C5orf56 (11738088_a_at) / RFU OLFML3 (11715873_a_at) / Fold change /veh OLFML3 (11715873_a_at) / RFU LOC100653217 /// NTM (11731650_a_at) / Fold change /veh LOC100653217 /// NTM (11731650_a_at) / RFU MAPK11 (11762145_a_at) / Fold change /veh MAPK11 (11762145_a_at) / RFU FIZ1 (11724087_x_at) / Fold change /veh FIZ1 (11724087_x_at) / RFU OASL (11726364_x_at) / Fold change /veh OASL (11726364_x_at) / RFU SOX15 (11748057_x_at) / Fold change /veh SOX15 (11748057_x_at) / RFU CD79A (11719716_a_at) / Fold change /veh CD79A (11719716_a_at) / RFU HIST1H1D (11736915_at) / Fold change /veh HIST1H1D (11736915_at) / RFU CASKIN2 (11723855_a_at) / Fold change /veh CASKIN2 (11723855_a_at) / RFU LOC730098 (11760151_x_at) / Fold change /veh LOC730098 (11760151_x_at) / RFU OR4N2 (11742367_at) / Fold change /veh OR4N2 (11742367_at) / RFU PRRT2 (11749266_a_at) / Fold change /veh PRRT2 (11749266_a_at) / RFU SNX32 (11753110_a_at) / Fold change /veh SNX32 (11753110_a_at) / RFU CDHR5 (11726645_a_at) / Fold change /veh CDHR5 (11726645_a_at) / RFU RCAN1 (11760418_a_at) / Fold change /veh RCAN1 (11760418_a_at) / RFU FAM167A (11723789_a_at) / Fold change /veh FAM167A (11723789_a_at) / RFU FAM26E (11764081_at) / Fold change /veh FAM26E (11764081_at) / RFU ISYNA1 (11749810_s_at) / Fold change /veh ISYNA1 (11749810_s_at) / RFU ACY1 (11761880_at) / Fold change /veh ACY1 (11761880_at) / RFU 11764098_at / Fold change /veh 11764098_at / RFU SAMD14 (11745864_x_at) / Fold change /veh SAMD14 (11745864_x_at) / RFU NPB (11741838_a_at) / Fold change /veh NPB (11741838_a_at) / RFU TMPRSS6 (11731388_a_at) / Fold change /veh TMPRSS6 (11731388_a_at) / RFU KRTAP10-2 (11738614_at) / Fold change /veh KRTAP10-2 (11738614_at) / RFU ARHGAP8 /// PRR5-ARHGAP8 (11727945_x_at) / Fold change /veh ARHGAP8 /// PRR5-ARHGAP8 (11727945_x_at) / RFU KRTAP5-7 /// NADSYN1 (11734609_at) / Fold change /veh KRTAP5-7 /// NADSYN1 (11734609_at) / RFU RASL12 (11751679_a_at) / Fold change /veh RASL12 (11751679_a_at) / RFU CDKN2B (11736163_a_at) / Fold change /veh CDKN2B (11736163_a_at) / RFU PRF1 (11729649_at) / Fold change /veh PRF1 (11729649_at) / RFU, ZNF638 /// ZNF638-IT1 / Fold change vs veh, ZNF638 /// ZNF638-IT1 / RFU, PANK3 / Fold change vs veh, PANK3 / RFU, SH3YL1 / Fold change vs veh, SH3YL1 / RFU, ZEB2 / Fold change vs veh, ZEB2 / RFU, NRIP1 / Fold change vs veh, NRIP1 / RFU, PTTG1IP / Fold change vs veh, PTTG1IP / RFU, CAPN2 / Fold change vs veh, CAPN2 / RFU, MED14 / Fold change vs veh, MED14 / RFU, SNORA58 / Fold change vs veh, SNORA58 / RFU, C1orf63 / Fold change vs veh, C1orf63 / RFU, LRRFIP1 / Fold change vs veh, LRRFIP1 / RFU, NDUFAF7 / Fold change vs veh, NDUFAF7 / RFU, SLC12A2 / Fold change vs veh, SLC12A2 / RFU, IBTK / Fold change vs veh, IBTK / RFU, ESF1 / Fold change vs veh, ESF1 / Fold change vs veh, TMEM50B / RFU, TAOK1 / Fold change vs veh, TAOK1 / RFU, ACBD3 / Fold change vs veh, ACBD3 / RFU, TMA16 / Fold change vs veh, TMA16 / RFU, RWDD3 / Fold change vs veh, RWDD3 / RFU, BCAT1 / Fold change vs veh, BCAT1 / RFU, EDEM3 / Fold change vs veh, EDEM3 / RFU, TMEM33 / Fold change vs veh, TMEM33 / RFU, WDR75 / Fold change vs veh, WDR75 / RFU, AHCTF1 / Fold change vs veh, AHCTF1 / RFU, TFRC / Fold change vs veh, TFRC / RFU, ZDHHC17 / Fold change vs veh, ZDHHC17 / RFU, NOM1 / Fold change vs veh, NOM1 / RFU, ARL8B / Fold change vs veh, ARL8B / RFU, ZBTB11 / Fold change vs veh, ZBTB11 / RFU, TAMM41 / Fold change vs veh, TAMM41 / RFU, KIAA1704 /// LOC100996395 / Fold change vs veh, KIAA1704 /// LOC100996395 / RFU, ING1 / Fold change vs veh, ING1 / RFU, TRMT61B / Fold change vs veh, TRMT61B / RFU, FUBP3 / Fold change vs veh, FUBP3 / RFU, TP53 / Fold change vs veh, TP53 / RFU, TNKS2 / Fold change vs veh, TNKS2 / RFU, ZFP14 / Fold change vs veh, ZFP14 / RFU, ACTR2 / Fold change vs veh, ACTR2 / RFU, PPP3R1 / Fold change vs veh, PPP3R1 / RFU, PIK3R1 / Fold change vs veh, PIK3R1 / RFU, HNRNPA1 / Fold change vs veh, HNRNPA1 / RFU, RNF170 / Fold change vs veh, RNF170 / RFU, ZNF28 / Fold change vs veh, ZNF28 / RFU, RNGTT / Fold change vs veh, RNGTT / RFU, OGT / Fold change vs veh, OGT / RFU, BRD1 / Fold change vs veh, BRD1 / RFU, MARS / Fold change vs veh, MARS / RFU, ZNF655 / Fold change vs veh, ZNF655 / RFU, FAHD1 / Fold change vs veh, FAHD1 / RFU, BDP1 / Fold change vs veh, BDP1 / RFU, LRRCC1 / Fold change vs veh, LRRCC1 / RFU, ARID1A / Fold change vs veh, ARID1A / RFU, ZNF146 / Fold change vs veh, ZNF146 / RFU, ZNF330 / Fold change vs veh, ZNF330 / RFU, GPN3 / Fold change vs veh, GPN3 / RFU, C9orf123 / Fold change vs veh, C9orf123 / RFU, N4BP2L2 / Fold change vs veh, N4BP2L2 / RFU, ARFIP1 / Fold change vs veh, ARFIP1 / RFU, FAM179B / Fold change vs veh, FAM179B / RFU, BCL10 / Fold change vs veh, BCL10 / RFU, UHRF1BP1L / Fold change vs veh, UHRF1BP1L / RFU, BET1 / Fold change vs veh, BET1 / RFU, CNOT2 / Fold change vs veh, CNOT2 / RFU, ZNF268 / Fold change vs veh, ZNF268 / Fold change vs veh, ZNF507 / RFU, DGCR2 / Fold change vs veh, DGCR2 / RFU, WDSUB1 / Fold change vs veh, WDSUB1 / Fold change vs veh, HSP90B1 /// MIR3652 / RFU, ADSS / Fold change vs veh, ADSS / RFU, GK / Fold change vs veh, GK / RFU, ZNF148 / Fold change vs veh, ZNF148 / RFU, TAF9 / Fold change vs veh, TAF9 / RFU, SLC1A5 / Fold change vs veh, SLC1A5 / RFU, SLMO2 / Fold change vs veh, SLMO2 / RFU, ABCC4 / Fold change vs veh, ABCC4 / RFU, LOC101060439 /// RAP1B / Fold change vs veh, LOC101060439 /// RAP1B / RFU, RFX7 / Fold change vs veh, RFX7 / RFU, GTPBP10 / Fold change vs veh, GTPBP10 / RFU, CNEP1R1 / Fold change vs veh, CNEP1R1 / RFU, BIVM-ERCC5 /// ERCC5 / Fold change vs veh, BIVM-ERCC5 /// ERCC5 / RFU, ILF3 / Fold change vs veh, ILF3 / RFU 11762660_at / Fold change /veh 11762660_at / RFU VCAN (11757783_s_at) / Fold change /veh VCAN (11757783_s_at) / RFU DDX43 (11728927_at) / Fold change /veh DDX43 (11728927_at) / RFU KRT8 (11758188_x_at) / Fold change /veh KRT8 (11758188_x_at) / RFU NKD1 (11759106_at) / Fold change /veh NKD1 (11759106_at) / RFU SRD5A1 (11742802_a_at) / Fold change /veh SRD5A1 (11742802_a_at) / RFU TPSAB1 /// TPSB2 (11721975_s_at) / Fold change /veh TPSAB1 /// TPSB2 (11721975_s_at) / RFU GSTM3 (11746129_a_at) / Fold change /veh GSTM3 (11746129_a_at) / RFU IL23R (11737362_x_at) / Fold change /veh IL23R (11737362_x_at) / RFU TMEM51 (11727254_a_at) / Fold change /veh TMEM51 (11727254_a_at) / RFU PIWIL2 (11732686_x_at) / Fold change /veh PIWIL2 (11732686_x_at) / RFU ORM1 (11744905_x_at) / Fold change /veh ORM1 (11744905_x_at) / RFU CCDC152 (11743942_at) / Fold change /veh CCDC152 (11743942_at) / RFU ECM1 (11717891_a_at) / Fold change /veh ECM1 (11717891_a_at) / RFU IL23R (11748794_a_at) / Fold change /veh IL23R (11748794_a_at) / RFU TNFAIP8L3 (11732012_x_at) / Fold change /veh TNFAIP8L3 (11732012_x_at) / RFU MBOAT4 (11741988_at) / Fold change /veh MBOAT4 (11741988_at) / RFU 11764193_at / Fold change /veh 11764193_at / RFU TMEM53 (11763286_at) / Fold change /veh TMEM53 (11763286_at) / RFU MAGEB2 (11727129_at) / Fold change /veh MAGEB2 (11727129_at) / RFU TMEM200A (11744735_a_at) / Fold change /veh TMEM200A (11744735_a_at) / RFU CCDC152 (11751479_a_at) / Fold change /veh CCDC152 (11751479_a_at) / RFU FAM211A (11726209_a_at) / Fold change /veh FAM211A (11726209_a_at) / RFU RGS16 (11746705_a_at) / Fold change /veh RGS16 (11746705_a_at) / RFU VCAN (11755009_s_at) / Fold change /veh VCAN (11755009_s_at) / RFU RHOB (11743442_s_at) / Fold change /veh RHOB (11743442_s_at) / RFU RGS16 (11720943_a_at) / Fold change /veh RGS16 (11720943_a_at) / RFU RGS16 (11720944_at) / Fold change /veh RGS16 (11720944_at) / RFU, VPS4B / Fold change vs veh, VPS4B / RFU, CREB1 / Fold change vs veh, CREB1 / RFU, DNAJC13 / Fold change vs veh, DNAJC13 / RFU, GNAQ / Fold change vs veh, GNAQ / RFU, CDK5R1 / Fold change vs veh, CDK5R1 / RFU, ZRANB3 / Fold change vs veh, ZRANB3 / RFU, CUL4A / Fold change vs veh, CUL4A / RFU, CCNY / Fold change vs veh, CCNY / RFU, UFL1 / Fold change vs veh, UFL1 / RFU, COG3 / Fold change vs veh, COG3 / RFU, DIAPH2 / Fold change vs veh, DIAPH2 / RFU, SKA2 / Fold change vs veh, SKA2 / RFU, AFF3 / Fold change vs veh, AFF3 / RFU, LMF1 / Fold change vs veh, LMF1 / RFU, IPO11 / Fold change vs veh, IPO11 / RFU, DFFB / Fold change vs veh, DFFB / RFU, FOXP1 / Fold change vs veh, FOXP1 / RFU, CARD8 / Fold change vs veh, CARD8 / RFU, STRN3 / Fold change vs veh, STRN3 / RFU, ADK / Fold change vs veh, ADK / RFU, RASSF2 / Fold change vs veh, RASSF2 / RFU, WIPF1 / Fold change vs veh, WIPF1 / RFU, LARP1B / Fold change vs veh, LARP1B / RFU, RASA1 / Fold change vs veh, RASA1 / RFU, RB1 / Fold change vs veh, RB1 / RFU, PPFIA1 / Fold change vs veh, PPFIA1 / RFU, MAT2A / Fold change vs veh, MAT2A / RFU, CCT5 / Fold change vs veh, CCT5 / RFU, WDR92 / Fold change vs veh, WDR92 / RFU, CUX1 / Fold change vs veh, CUX1 / RFU, TTC7A / Fold change vs veh, TTC7A / RFU, TMEM135 / Fold change vs veh, TMEM135 / RFU, DEPTOR / Fold change vs veh, DEPTOR / RFU, CPM / Fold change vs veh, CPM / RFU, DNAJB6 / Fold change vs veh, DNAJB6 / RFU, CACNA2D3 / Fold change vs veh, CACNA2D3 / RFU, DTX4 / Fold change vs veh, DTX4 / RFU, TFCP2 / Fold change vs veh, TFCP2 / RFU, GMCL1 /// GMCL1P1 / Fold change vs veh, GMCL1 /// GMCL1P1 / RFU, AEBP2 / Fold change vs veh, AEBP2 / RFU, SNHG1 /// SNORD22 /// SNORD25 /// SNORD26 /// SNORD27 /// SNORD28 /// SNORD29 /// SNORD31 / Fold change vs veh, SNHG1 /// SNORD22 /// SNORD25 /// SNORD26 /// SNORD27 /// SNORD28 /// SNORD29 /// SNORD31 / Fold change (Aza/veh), C12orf56 (ProbeSet 11735607_a_at) / Fold change (ACY-1035/veh), C12orf56 (ProbeSet 11735607_a_at) / Fold change (Aza/veh), FGFR1OP (ProbeSet 11751329_s_at) / Fold change (ACY-1035/veh), FGFR1OP (ProbeSet 11751329_s_at) / Fold change (Aza/veh), VPS36 (ProbeSet 11739960_a_at) / Fold change (ACY-1035/veh), VPS36 (ProbeSet 11739960_a_at) / RFU SYPL1 (11715823_x_at) / Fold change /veh SYPL1 (11715823_x_at) / RFU IGFBP7 (11715501_s_at) / Fold change /veh IGFBP7 (11715501_s_at) / RFU REEP3 (11722064_at) / Fold change /veh REEP3 (11722064_at) / RFU IGLL1 (11728026_x_at) / Fold change /veh IGLL1 (11728026_x_at): dose or concentration left out as unconfirmed
Conditions: MV-4-11 cells, 48 hours

Nc1ncn([C@@H]2O[C@H](CO)[C@@H](O)[C@H]2O)c(=O)n1 [azacitidine]
RFU OLFML3 (11715873_a_at): 10.99 RFU
